Laboratory results taken from ChEMBL document CHEMBL3885881, “DrugMatrix”.

Organism: Rattus norvegicus
Experiment: DrugMatrix - Regimen: Daily Repeat
Type: toxicity, organism-based, Sprague-Dawley
Set-up: regimen Daily Repeat, gender Male, age 6-8 weeks
Conditions: in vivo, po, route oral GAVAGE, […]; for ABSOLUTE BASOPHIL / ABSOLUTE EOSINOPHIL / ABSOLUTE LYMPHOCYTE / ABSOLUTE MONOCYTE / ABSOLUTE SEGMENTED NEUTROPHIL / BASOPHIL / EOSINOPHIL / ERYTHROCYTE COUNT / HEMATOCRIT / HEMOGLOBIN / LEUKOCYTE COUNT / LYMPHOCYTE / MEAN CORPUSCULAR HEMOGLOBIN / MEAN CORPUSCULAR HEMOGLOBIN CONCENTRATION / MEAN CORPUSCULAR VOLUME / MONOCYTE / NEUTROPHIL / NUCLEATED RED BLOOD CELLS / PLATELET COUNT: tissue Blood; for ALANINE AMINOTRANSFERASE / ALBUMIN / ALKALINE PHOSPHATASE / ASPARTATE AMINOTRANSFERASE / BLOOD UREA NITROGEN / CARBON DIOXIDE / CHLORIDE / CHOLESTEROL / CREATINE PHOSPHOKINASE / CREATININE / GLUCOSE / LACTATE DEHYDROGENASE / LIPASE / PHOSPHORUS / POTASSIUM / SODIUM / TOTAL BILIRUBIN / TOTAL PROTEIN / URIC ACID: tissue Plasma
[1] = 0 mg/kg, 72 h, dose level Control, time 3 day
[2] = 0 mg/kg, dose level Control, time 7 day
[3] = 30 mg/kg, 72 h, dose level Low, time 3 day

SMILES: S=C=Nc1cccc2ccccc12 [1-NAPHTHYLISOTHIOCYANATE]
- ABSOLUTE BASOPHIL [1]: 0 CELLS/uL
- ABSOLUTE EOSINOPHIL [1]: 47.5 CELLS/uL
- ABSOLUTE LYMPHOCYTE [1]: 9600.67 CELLS/uL
- ABSOLUTE MONOCYTE [1]: 195.5 CELLS/uL
- ABSOLUTE SEGMENTED NEUTROPHIL [1]: 839.67 CELLS/uL
- BASOPHIL [1]: 0%
- EOSINOPHIL [1]: 0.5%
- ERYTHROCYTE COUNT [1]: 5.26 x10E6/uL
- HEMATOCRIT [1]: 34.48%
- HEMOGLOBIN [1]: 12.77 G/DL
- LEUKOCYTE COUNT [1]: 10.68 x10E3/uL
- LYMPHOCYTE [1]: 89.67%
- MEAN CORPUSCULAR HEMOGLOBIN [1]: 24.3 pg
- MEAN CORPUSCULAR HEMOGLOBIN CONCENTRATION [1]: 37.05 G/DL
- MEAN CORPUSCULAR VOLUME [1]: 65.62 fL
- MONOCYTE [1]: 1.83%
- NEUTROPHIL [1]: 8%
- NUCLEATED RED BLOOD CELLS [1]: 0.17 /100WBC
- PLATELET COUNT [1]: 1038.67 x10E3/uL
- ALANINE AMINOTRANSFERASE [1]: 65.17 u/L
- ALBUMIN [1]: 4.2 G/DL
- ALKALINE PHOSPHATASE [1]: 377.5 u/L
- ASPARTATE AMINOTRANSFERASE [1]: 90.5 u/L
- BLOOD UREA NITROGEN [1]: 13.5 mg/dL
- CARBON DIOXIDE [1]: 31.17 mmol/L
- CHLORIDE [1]: 98.33 MEQ/L
- CHOLESTEROL [1]: 66.33 mg/dL
- CREATINE PHOSPHOKINASE [1]: 478.83 u/L
- CREATININE [1]: 0.19 mg/dL
- GLUCOSE [1]: 155.17 mg/dL
- LACTATE DEHYDROGENASE [1]: 107.5 u/L
- LIPASE [1]: 10.33 u/L
- PHOSPHORUS [1]: 9.25 mg/dL
- POTASSIUM [1]: 5.43 MEQ/L
- SODIUM [1]: 142.05 MEQ/L
- TOTAL BILIRUBIN [1]: 0.12 mg/dL
- TOTAL PROTEIN [1]: 5.95 G/DL
- URIC ACID [1]: 0.62 mg/dL
- ABSOLUTE BASOPHIL [2]: 0 CELLS/uL
- ABSOLUTE EOSINOPHIL [2]: 43.5 CELLS/uL
- ABSOLUTE LYMPHOCYTE [2]: 9369.83 CELLS/uL
- ABSOLUTE MONOCYTE [2]: 196.17 CELLS/uL
- ABSOLUTE SEGMENTED NEUTROPHIL [2]: 723.83 CELLS/uL
- BASOPHIL [2]: 0%
- EOSINOPHIL [2]: 0.5%
- ERYTHROCYTE COUNT [2]: 5.09 x10E6/uL
- HEMATOCRIT [2]: 32.42%
- HEMOGLOBIN [2]: 13.1 G/DL
- LEUKOCYTE COUNT [2]: 10.33 x10E3/uL
- LYMPHOCYTE [2]: 90.83%
- MEAN CORPUSCULAR HEMOGLOBIN [2]: 25.75 pg
- MEAN CORPUSCULAR HEMOGLOBIN CONCENTRATION [2]: 40.43 G/DL
- MEAN CORPUSCULAR VOLUME [2]: 63.62 fL
- MONOCYTE [2]: 1.67%
- NEUTROPHIL [2]: 7%
- NUCLEATED RED BLOOD CELLS [2]: 0 /100WBC
- PLATELET COUNT [2]: 1106.5 x10E3/uL
- ALANINE AMINOTRANSFERASE [2]: 48.67 u/L
- ALBUMIN [2]: 4.13 G/DL
- ALKALINE PHOSPHATASE [2]: 275.17 u/L
- ASPARTATE AMINOTRANSFERASE [2]: 73.17 u/L
- BLOOD UREA NITROGEN [2]: 13.17 mg/dL
- CARBON DIOXIDE [2]: 27.5 mmol/L
- CHLORIDE [2]: 99.67 MEQ/L
- CHOLESTEROL [2]: 60.83 mg/dL
- CREATINE PHOSPHOKINASE [2]: 213 u/L
- CREATININE [2]: 0.2 mg/dL
- GLUCOSE [2]: 166.67 mg/dL
- LACTATE DEHYDROGENASE [2]: 94.5 u/L
- LIPASE [2]: 10.5 u/L
- PHOSPHORUS [2]: 9.98 mg/dL
- POTASSIUM [2]: 5.3 MEQ/L
- SODIUM [2]: 140.77 MEQ/L
- TOTAL BILIRUBIN [2]: 0.15 mg/dL
- TOTAL PROTEIN [2]: 5.88 G/DL
- URIC ACID [2]: 0.82 mg/dL
- ABSOLUTE BASOPHIL [3]: 0 CELLS/uL
- ABSOLUTE EOSINOPHIL [3]: 54.67 CELLS/uL
- ABSOLUTE LYMPHOCYTE [3]: 18655.83 CELLS/uL
- ABSOLUTE MONOCYTE [3]: 720.5 CELLS/uL
- ABSOLUTE SEGMENTED NEUTROPHIL [3]: 2902.33 CELLS/uL
- BASOPHIL [3]: 0%
- EOSINOPHIL [3]: 0.33%
- ERYTHROCYTE COUNT [3]: 6.41 x10E6/uL
- HEMATOCRIT [3]: 39.98%
- HEMOGLOBIN [3]: 14.27 G/DL
- LEUKOCYTE COUNT [3]: 22.33 x10E3/uL
- LYMPHOCYTE [3]: 84.17%
- MEAN CORPUSCULAR HEMOGLOBIN [3]: 22.4 pg
- MEAN CORPUSCULAR HEMOGLOBIN CONCENTRATION [3]: 35.92 G/DL
- MEAN CORPUSCULAR VOLUME [3]: 62.38 fL
- MONOCYTE [3]: 3.17%
- NEUTROPHIL [3]: 12.33%
- NUCLEATED RED BLOOD CELLS [3]: 0 /100WBC
- PLATELET COUNT [3]: 844.83 x10E3/uL
- ALANINE AMINOTRANSFERASE [3]: 264.83 u/L
- ALBUMIN [3]: 3.62 G/DL
- ALKALINE PHOSPHATASE [3]: 660.67 u/L
- ASPARTATE AMINOTRANSFERASE [3]: 415.67 u/L
- BLOOD UREA NITROGEN [3]: 12.67 mg/dL
- CARBON DIOXIDE [3]: 28.83 mmol/L
- CHLORIDE [3]: 98 MEQ/L
- CHOLESTEROL [3]: 282.33 mg/dL
- CREATINE PHOSPHOKINASE [3]: 281.83 u/L
- CREATININE [3]: 0.18 mg/dL
- GLUCOSE [3]: 117.33 mg/dL
- LACTATE DEHYDROGENASE [3]: 160.33 u/L
- LIPASE [3]: 11.33 u/L
- PHOSPHORUS [3]: 9.08 mg/dL
- POTASSIUM [3]: 6.45 MEQ/L
- SODIUM [3]: 141.7 MEQ/L
- TOTAL BILIRUBIN [3]: 3.02 mg/dL
- TOTAL PROTEIN [3]: 6.22 G/DL
- URIC ACID [3]: 0.85 mg/dL
